Counter-ions that a name gives are not always drawn. Like-named read-outs stand apart in the source and are kept apart here.
How the values were obtained:
[1] = target: T1, SARS-CoV-2 PLpro (nsp3 1564–1878) (Severe acute respiratory syndrome coronavirus 2, UniProt P0DTD1); assay: biochemical; set-up: FRET-quenched peptide (Pro3) cleavage by PLpro, 10 min pre-incubation, slope over 20 min, normalised to no-compound control; settings: high concentration screen, read-out: % of control remaining
[2] = target: T1, SARS-CoV-2 PLpro (nsp3 1564–1878); assay: biochemical; set-up: FRET-quenched peptide (Pro3) cleavage by PLpro, 10 min pre-incubation, slope over 20 min, normalised to no-compound control; settings: low concentration screen, read-out: % of control remaining

Structure (SMILES): COC(=O)[C@H](c1ccccc1Cl)N1CCC2SC(=O)C=C2C1 (some centres unmarked) [Clopidogrel thiolactone]
- remaining activity at 3.75 µM ([1]; Well no.=8562): 95.5%
- remaining activity at 1.25 µM ([2]; Well no.=8562): 95.8%

Structure (SMILES): COC(=O)[C@H](c1ccccc1Cl)N1CCc2sccc2C1 [Clopidogrel]
- remaining activity at 3.75 µM ([1]; Well no.=2277): 93%
- remaining activity at 1.25 µM ([2]; Well no.=2277): 90.2%

Structure (SMILES): C#CCN(C)CCCOc1ccc(Cl)cc1Cl [Clorgyline hydrochloride]
- remaining activity at 3.75 µM ([1]; Well no.=878): 102%
- remaining activity at 1.25 µM ([2]; Well no.=878): 101%

Structure (SMILES): Nc1cc(C(Cl)=C(Cl)Cl)c(S(N)(=O)=O)cc1S(N)(=O)=O [Clorsulon]
- remaining activity at 3.75 µM ([1]; Well no.=5298): 87.7%
- remaining activity at 3.75 µM ([1]; Well no.=7310): 97.7%
- remaining activity at 1.25 µM ([2]; Well no.=5298): 87.3%
- remaining activity at 1.25 µM ([2]; Well no.=7310): 99.9%

Structure (SMILES): CN1CCN(C2=Nc3ccccc3Sc3ccc(Cl)cc32)CC1 [Clothiapine]
- remaining activity at 3.75 µM ([1]; Well no.=1815): 99.6%
- remaining activity at 1.25 µM ([2]; Well no.=1815): 102%

Structure (SMILES): Clc1ccccc1C(c1ccccc1)(c1ccccc1)n1ccnc1 [Clotrimazole]
- remaining activity at 3.75 µM ([1]; Well no.=372): 99.9%
- remaining activity at 1.25 µM ([2]; Well no.=372): 97.9%

Structure (SMILES): Cc1onc(-c2ccccc2Cl)c1C(=O)N[C@@H]1C(=O)N2[C@@H]1SC(C)(C)[C@@H]2C(=O)O [Cloxacillin (sodium monohydrate)]
- remaining activity at 3.75 µM ([1]; Well no.=7556): 103%
- remaining activity at 1.25 µM ([2]; Well no.=7556): 101%

Structure (SMILES): CN1CCN(C2=Nc3cc(Cl)ccc3Nc3ccccc32)CC1 [Clozapine]
- remaining activity at 3.75 µM ([1]; Well no.=182): 96.2%
- remaining activity at 3.75 µM ([1]; Well no.=1813): 95.3%
- remaining activity at 3.75 µM ([1]; Well no.=6569): 97.3%
- remaining activity at 1.25 µM ([2]; Well no.=182): 99.6%
- remaining activity at 1.25 µM ([2]; Well no.=1813): 98.4%
- remaining activity at 1.25 µM ([2]; Well no.=6569): 98.5%

Structure (SMILES): CC(C)c1nc(CN(C)C(=O)N[C@@H](CCN2CCOCC2)C(=O)N[C@H](CC[C@H](Cc2ccccc2)NC(=O)OCc2cncs2)Cc2ccccc2)cs1 [Cobicistat (GS-9350)]
- remaining activity at 3.75 µM ([1]; Well no.=5213): 102%
- remaining activity at 1.25 µM ([2]; Well no.=5213): 102%

Structure (SMILES): COc1ccc(/C=C\c2cc(OC)c(OC)c(OC)c2)cc1O [Combretastatin A4]
- remaining activity at 3.75 µM ([1]; Well no.=5540): 102%
- remaining activity at 1.25 µM ([2]; Well no.=5540): 101%

Structure (SMILES): CCN1C[C@]2(COC)CC[C@H](O)[C@]34C1C(C[C@H]23)[C@@]1(O)C[C@H](OC)[C@H]2C[C@@H]4[C@@H]1[C@H]2OC(C)=O [Condelphine]
- remaining activity at 3.75 µM ([1]; Well no.=3107): 92.8%
- remaining activity at 1.25 µM ([2]; Well no.=3107): 93.3%

Structure (SMILES): C[C@H]1[C@H]2CC[C@H]3[C@@H]4CC=C5C[C@@H](N(C)C)CC[C@]5(C)[C@H]4CC[C@]23CN1C [Conessine]
- remaining activity at 3.75 µM ([1]; Well no.=3100): 93.7%
- remaining activity at 1.25 µM ([2]; Well no.=3100): 94%

Structure (SMILES): Nc1c(/N=N/c2ccc(-c3ccc(/N=N/c4cc(S(=O)(=O)O)c5ccccc5c4N)cc3)cc2)cc(S(=O)(=O)O)c2ccccc12 [Congo Red]
- remaining activity at 3.75 µM ([1]; Well no.=8614): 104%
- remaining activity at 1.25 µM ([2]; Well no.=8614): 101%

Structure (SMILES): Cc1nc2c([nH]1)-c1ccccc1N(C(=O)c1ccc(NC(=O)c3ccccc3-c3ccccc3)cc1)CC2 [Conivaptan (hydrochloride)]
- remaining activity at 3.75 µM ([1]; Well no.=6463): 101%
- remaining activity at 1.25 µM ([2]; Well no.=6463): 99.7%

Structure (SMILES): c1c2c(cc3c1OCO3)-c1cc3ccc4c(c3c[n+]1CC2)OCO4 [Coptisine (chloride)]
- remaining activity at 3.75 µM ([1]; Well no.=8071): 101%
- remaining activity at 1.25 µM ([2]; Well no.=8071): 106%

Structure (SMILES): Nc1ncnc2c1ncn2[C@@H]1O[C@H](CO)C[C@H]1O [Cordycepin]
- remaining activity at 3.75 µM ([1]; Well no.=7860): 95.9%
- remaining activity at 1.25 µM ([2]; Well no.=7860): 101%

Structure (SMILES): C[C@]12CCC(=O)C=C1CC[C@@H]1[C@@H]2CC[C@@]2(C)[C@H]1CC[C@]2(O)C(=O)CO [Cortexolone]
- remaining activity at 3.75 µM ([1]; Well no.=1509): 93%
- remaining activity at 1.25 µM ([2]; Well no.=1509): 93.1%

Structure (SMILES): C[C@]12C[C@H](O)[C@H]3[C@@H](CCC4=CC(=O)CC[C@@]43C)[C@@H]1CC[C@@H]2C(=O)CO [Corticosterone]
- remaining activity at 3.75 µM ([1]; Well no.=285): 92.1%
- remaining activity at 3.75 µM ([1]; Well no.=1928): 96.3%
- remaining activity at 3.75 µM ([1]; Well no.=7075): 105%
- remaining activity at 1.25 µM ([2]; Well no.=285): 93.6%
- remaining activity at 1.25 µM ([2]; Well no.=1928): 99.3%
- remaining activity at 1.25 µM ([2]; Well no.=7075): 104%

Structure (SMILES): CC(=O)OCC(=O)[C@@]1(O)CC[C@H]2[C@@H]3CCC4=CC(=O)CC[C@]4(C)[C@H]3C(=O)C[C@@]21C [Cortisone 21-acetate]
- remaining activity at 3.75 µM ([1]; Well no.=172): 92.8%
- remaining activity at 1.25 µM ([2]; Well no.=172): 92.9%

Structure (SMILES): CC(=O)OCC(=O)[C@@]1(O)CC[C@H]2[C@@H]3CCC4=CC(=O)CC[C@]4(C)[C@H]3C(=O)C[C@@]21C [Cortisone (acetate)]
- remaining activity at 3.75 µM ([1]; Well no.=6321): 105%
- remaining activity at 1.25 µM ([2]; Well no.=6321): 106%

Structure (SMILES): C[C@]12CCC(=O)C=C1CC[C@@H]1[C@@H]2C(=O)C[C@@]2(C)[C@H]1CC[C@]2(O)C(=O)CO [Cortisone]
- remaining activity at 3.75 µM ([1]; Well no.=381): 93.5%
- remaining activity at 3.75 µM ([1]; Well no.=6485): 101%
- remaining activity at 3.75 µM ([1]; Well no.=7431): 100%
- remaining activity at 1.25 µM ([2]; Well no.=381): 90.6%
- remaining activity at 1.25 µM ([2]; Well no.=6485): 101%
- remaining activity at 1.25 µM ([2]; Well no.=7431): 102%

Structure (SMILES): C[C@]12CCC(=O)C=C1CC[C@@H]1[C@@H]2CC[C@@]2(C)[C@H]1CC[C@]2(O)C(=O)CO [Cortodoxone]
- remaining activity at 3.75 µM ([1]; Well no.=7330): 98%
- remaining activity at 1.25 µM ([2]; Well no.=7330): 98.9%

Structure (SMILES): COc1cc2c(cc1OC)[C@H]1[C@@H](C)c3ccc(OC)c(OC)c3CN1CC2 [Corydaline]
- remaining activity at 3.75 µM ([1]; Well no.=3252): 102%
- remaining activity at 1.25 µM ([2]; Well no.=3252): 101%

Structure (SMILES): COC(=O)[C@H]1[C@H]2C[C@H]3c4[nH]c5ccccc5c4CCN3C[C@@H]2CC[C@@H]1O [Corynanthine]
- remaining activity at 3.75 µM ([1]; Well no.=3795): 103%
- remaining activity at 1.25 µM ([2]; Well no.=3795): 97.4%

Structure (SMILES): C=C1C(=O)O[C@@H]2/C=C(\C)CC/C=C(\C)CC[C@@H]12 [Costunolide]
- remaining activity at 3.75 µM ([1]; Well no.=5230): 99.1%
- remaining activity at 3.75 µM ([1]; Well no.=6634): 101%
- remaining activity at 1.25 µM ([2]; Well no.=5230): 101%
- remaining activity at 1.25 µM ([2]; Well no.=6634): 102%

Structure (SMILES): CN1C(=O)CC[C@H]1c1cccnc1 [Cotinine]
- remaining activity at 3.75 µM ([1]; Well no.=7163): 96.3%
- remaining activity at 1.25 µM ([2]; Well no.=7163): 97.7%

Structure (SMILES): CO[C@H]1[C@H](OC(=O)c2ccc(C)[nH]2)[C@H](O)[C@@H](Oc2ccc3c(O)c(NC(=O)c4c[nH]c(C(=O)Nc5c(O)c6ccc(O[C@H]7OC(C)(C)[C@@H](OC)[C@H](OC(=O)c8ccc(C)[nH]8)[C@@H]7O)c(C)c6oc5=O)c4C)c(=O)oc3c2C)OC1(C)C [Coumermycin A1]
- remaining activity at 3.75 µM ([1]; Well no.=3175): 104%
- remaining activity at 1.25 µM ([2]; Well no.=3175): 105%

Structure (SMILES): O=c1oc2cc(O)ccc2c2oc3cc(O)ccc3c12 [Coumestrol]
- remaining activity at 3.75 µM ([1]; Well no.=3514): 93.2%
- remaining activity at 1.25 µM ([2]; Well no.=3514): 100%

Structure (SMILES): CN(CC(=O)O)C(=N)N [Creatine]
- remaining activity at 3.75 µM ([1]; Well no.=7457): 103%
- remaining activity at 1.25 µM ([2]; Well no.=7457): 101%

Source: publication PMC8286840, “Identifying SARS-CoV-2 antiviral compounds by screening for small molecule inhibitors of Nsp3 papain-like protease” (Biochemical Journal, 2021)
